Among the data in US20250235460A1, “COMBINATION THERAPY USING GLUCOSE-DEPENDENT INSULINOTROPIC POLYPEPTIDE RECEPTOR ANTAGONIST COMPOUNDS AND GLP-1 RECEPTOR AGONIST COMPOUNDS” (Pfizer Inc., priority 2024, published 2025) are IC50, EC50 and Emax values, retold here.

Assay type in all cases: cell-based
Assay [1] deals with T1, human Glucose-dependent Insulinotropic Polypeptide Receptor (hGIPR) (Homo sapiens, UniProt P48546).
T1 sequence (P48546 22-466): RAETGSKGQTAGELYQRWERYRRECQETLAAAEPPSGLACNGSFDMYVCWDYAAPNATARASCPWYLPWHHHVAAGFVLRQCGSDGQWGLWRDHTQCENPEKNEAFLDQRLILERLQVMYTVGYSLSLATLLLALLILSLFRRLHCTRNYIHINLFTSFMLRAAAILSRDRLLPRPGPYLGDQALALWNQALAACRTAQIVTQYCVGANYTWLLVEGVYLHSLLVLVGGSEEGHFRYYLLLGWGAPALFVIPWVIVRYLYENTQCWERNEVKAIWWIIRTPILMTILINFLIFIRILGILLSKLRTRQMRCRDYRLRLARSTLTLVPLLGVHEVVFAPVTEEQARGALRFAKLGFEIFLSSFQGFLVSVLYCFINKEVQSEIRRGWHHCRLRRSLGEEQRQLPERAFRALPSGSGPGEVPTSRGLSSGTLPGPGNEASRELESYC
As to the kind of experiment: Functional in vitro GIPR antagonist potency assay (cAMP HTRF, CHO-K1 cells stably expressing hGIPR, hGIP stimulation at EC80). The protocol:
The functional in vitro antagonist potency for test compounds was determined by monitoring intracellular cyclic adenosine monophosphate (cAMP) levels in Chinese hamster ovary (CHO)—K1 cells stably expressing the human Glucose-dependent Insulinotropic Polypeptide Receptor (hGIPR). Following agonist activation, hGIPR associates with the G-protein complex causing the Gas subunit to exchange bound guanosine diphosphate (GDP) for guanosine triphosphate (GTP), followed by dissociation of the Gas-GTP complex. The activated Gas subunit can couple to downstream effectors to regulate the levels of second messengers or cAMP within the cell. Thereby, determination of intracellular cAMP levels allows for pharmacological characterization. Intracellular cAMP levels are quantitated using a homogenous assay utilizing the Homogeneous Time Resolved Fluorescence (HTRF) technology from Perkin Elmer. […] The two entities compete for binding to a monoclonal anti-cAMP antibody labeled with cryptate. The specific signal is inversely proportional to the concentration of cAMP in the cells.
Test compounds were solubilized to a concentration of 30 mM in 100% dimethyl sulfoxide (DMSO). An 11-point dilution series using 1 in 3.162-fold serial dilutions was created in 100% DMSO with a top concentration of 8 mM. […]
Frozen assay-ready vials (at 1×10^7 cells/vial) of CHO-K1 cells stably expressing the Gs-coupled human GIPR receptor (Eurofins, DiscoverX, Cat No. 95-0146C2) were thawed, counted, and resuspended in assay buffer consisting of Hank's Balanced Salt Solution (HBSS, Lonza Cat No. 10-527) containing 20 mM (4-(2-hydroxyethyl)-1-piperazineethanesulfonic acid (HEPES, Lonza, Cat No. 17-737E), 0.1% bovine serum albumin (BSA, Sigma, Cat No. A7979), and 200 μM 3-isobutyl-1-methylxanthine (IBMX, Sigma, Cat No. 15879) at a density of 4×10^5 cells/mL. Cells were added to assay plate (5 μL/well of 4×10^5 cells/mL stock for 2,000 cells/well final) containing 50 nL of 200×FAC test compound, and incubated at 37° C. […] ([…]: 5% CO2), after which intracellular cAMP levels were quantified as per Perkin Elmer's protocol (5 μL of d2 and then 5 μL cryptate, incubated for 1 hour at room temperature). Emission spectra of samples were measured on a Pherastar plate reader (BMG Labtech Inc) using a HTRF protocol (excitation, 320 nm; emission, 665 nm/620 nm).
([…]: 5% CO2), with a micro-clime lid. […] ([…]: 5% CO2), after which intracellular cAMP levels were quantified and samples measured as described previously. […]
Data were analyzed using the ratio of fluorescence intensity at 620 and 665 nm for each well, extrapolated from the cAMP standard curve to express data as nanomolar (nM) cAMP for each well. […]
A general note: Time-resolved FRET reads energy transfer from a long-lived donor to a nearby acceptor.

Assay [2] has as its target human GLP-1R (Homo sapiens, UniProt P43220, G168S). Nature of the assay: CHO GLP-1R Clone H6 cAMP HTRF agonist assay (Assay 1, high receptor density). The note with it: for EC50: CHO GLP-1R clone H6, cAMP HTRF, geometric mean; for Emax: CHO GLP-1R clone H6, arithmetic mean, relative to saturating GLP-1 (1 μM), read-out: Assay 1 Emax (%). Put shortly: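 Replicate runs were pooled. Potencies were averaged geometrically and maximal efficacies arithmetically, then rounded to two significant figures.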

Assay [3] has as its target human GLP-1R (Homo sapiens, UniProt P43220, L260F). As to the kind of experiment: CHO GLP-1R Clone C6 cAMP HTRF agonist assay (Assay 2, low receptor density). The note with it: for EC50: CHO GLP-1R clone C6, cAMP HTRF, geometric mean; for Emax: CHO GLP-1R clone C6, arithmetic mean, relative to saturating GLP-1 (1 μM). From the text: In Table 5 and Table 6, assay data are presented to two (2) significant figures as the geometric mean (EC50s) and arithmetic mean (Emax) based on the number of replicates listed (Number). A blank cell means there was no data for that Example or the Emax was not calculated.

The mark [4] stands for this setting: CHO-K1 cells stably expressing human GIPR, inhibition of hGIP (EC80)-stimulated cAMP, 2 h preincubation.

Like-named read-outs stand apart in the source and are kept apart here.

human GLP-1R (Homo sapiens, UniProt P43220, G168S), sequence (P43220 24-463 G168S): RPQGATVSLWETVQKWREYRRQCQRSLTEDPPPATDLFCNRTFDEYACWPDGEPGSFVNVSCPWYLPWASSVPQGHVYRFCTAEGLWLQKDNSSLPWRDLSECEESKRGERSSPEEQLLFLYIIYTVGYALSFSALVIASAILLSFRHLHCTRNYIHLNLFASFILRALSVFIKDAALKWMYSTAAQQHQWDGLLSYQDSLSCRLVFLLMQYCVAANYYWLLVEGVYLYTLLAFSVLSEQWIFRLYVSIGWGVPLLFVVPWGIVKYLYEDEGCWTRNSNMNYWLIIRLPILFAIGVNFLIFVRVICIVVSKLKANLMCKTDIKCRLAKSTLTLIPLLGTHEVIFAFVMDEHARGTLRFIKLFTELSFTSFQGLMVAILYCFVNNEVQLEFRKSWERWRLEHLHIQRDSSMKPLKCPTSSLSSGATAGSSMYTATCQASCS
human GLP-1R (Homo sapiens, UniProt P43220, L260F), sequence (P43220 24-463 L260F): as the sequence (P43220 24-463 G168S) above, with S145G, L237F counted along it

By IC50 is commonly meant the point on the concentration scale where inhibition reaches its midpoint. `CC(C)c1ccc(NC(=O)N2CC[C@@H](C)[C@@H]2C(=O)Nc2ccc(-c3ccc(C(=O)O)cc3)cc2)cc1` (single isomer, unassigned) [Compound 35A, 4′-{[(3R)-3-Methyl-1-{[4-(propan-2-yl)phenyl]carbamoyl}-D-prolyl]amino}[1,1′-biphenyl]-4-carboxylic acid or 4′-{[(3S)-3-Methyl-1-{[4-(propan-2-yl)phenyl]carbamoyl}-L-prolyl]amino}[1,1′-biphenyl]-4-carboxylic acid] returned an IC50 in assay [1] of 4.6 nM.
The molecule `CC(C)c1ccc(NC(=O)N2CC[C@H](C)[C@@H]2C(=O)Nc2ccc(-c3ccc(C(=O)O)cc3)cc2)cc1` (single isomer, unassigned) [Compound 34A, 4′-{[(3S)-3-Methyl-1-{[4-(propan-2-yl)phenyl]carbamoyl}-D-prolyl]amino}[1,1′-biphenyl]-4-carboxylic acid or 4′-{[(3R)-3-Methyl-1-{[4-(propan-2-yl)phenyl]carbamoyl}-L-prolyl]amino}[1,1′-biphenyl]-4-carboxylic acid] displayed an IC50 in assay [1] of 10 nM.
Regarding `O=C(O)c1ccc(-c2ccc(NC(=O)[C@H]3CCCN3C(=O)Nc3ccc(C(F)(F)F)cc3)nc2)cc1` [Compound 31A, 4-{6-[(1-{[4-(Trifluoromethyl)phenyl]carbamoyl}-D-prolyl)amino]pyridin-3-yl}benzoic acid], the IC50 in assay [1] (setting [4]) turned out to be 7.8 nM.
The same measure, in the same setting: next, `Cc1cc(NC(=O)N2CCC[C@@H]2C(=O)Nc2ccc(-c3ccc(C(=O)O)nc3)cc2)ccc1C(C)C` [Compound 19A, 5-{4-[(1-{[3-Methyl-4-(propan-2-yl)phenyl]carbamoyl}-D-prolyl)amino]phenyl}pyridine-2-carboxylic acid]: 11 nM.
As a reminder, the EC50 is the concentration at which the effect is half-maximal. What is called Emax is the greatest response seen or fitted, relative to the assay's reference. On to `CCn1c(CN2CCC(c3cccc(OCc4ccc(Cl)cc4F)n3)CC2)nc2ccc(C(=O)O)cc21` [Compound 257B, 2-[(4-{6-[(4-chloro-2-fluorobenzyl)oxy]pyridin-2-yl}piperidin-1-yl)methyl]-1-ethyl-1H-benzimidazole-6-carboxylic acid], for which, in assay [2], the EC50 worked out at 8.6 nM and the Emax came out at 78%. In assay [3], this molecule showed an EC50 of 88 nM and an Emax of 82%.
`CCn1nncc1Cn1c(CN2CCC(c3cccc(OCc4ccc(C#N)cc4F)n3)CC2)nc2ccc(C(=O)O)cc21` [Compound 164B, 2-[(4-{6-[(4-cyano-2-fluorobenzyl)oxy]pyridin-2-yl}piperidin-1-yl)methyl]-1-[(1-ethyl-1H-1,2,3-triazol-5-yl)methyl]-1H-benzimidazole-6-carboxylic acid] showed an EC50 in assay [2] of 3.2 nM. In assay [3], this molecule returned an EC50 of 55 nM and a maximal effect (Emax) of 86%.
Regarding `Cn1cncc1Cn1c(CN2CCC(c3cccc(OCc4ccc(Cl)cc4F)n3)CC2)nc2ccc(C(=O)O)cc21` [Compound 143B, 2-[(4-{6-[(4-chloro-2-fluorobenzyl)oxy]pyridin-2-yl}piperidin-1-yl)methyl]-1-[(1-methyl-1H-imidazol-5-yl)methyl]-1H-benzimidazole-6-carboxylic acid], in assay [2], the EC50 stood at 140 nM and the Emax amounted to 72%. For the same molecule, in assay [3], a half-maximal response (EC50) required 1600 nM and the maximal effect (Emax) was 46%.
On to `COCCn1c(CN2CCN(c3cccc(OCc4ccc(Cl)cc4F)n3)C[C@H]2C)nc2ccc(C(=O)O)cc21` [Compound 356B, 2-{[(2R)-4-{6-[(4-chloro-2-fluorobenzyl)oxy]pyridin-2-yl}-2-methylpiperazin-1-yl]methyl}-1-(2-methoxyethyl)-1H-benzimidazole-6-carboxylic acid], for which the EC50 in assay [2] was determined as 100 nM. Also, in assay [3], a half-maximal effect (EC50) was put at 1100 nM and the Emax is 75%.
